Measured values published in patent publication US10053468B2, “Heterocyclic compound” (TAKEDA PHARMACEUTICAL COMPANY LIMITED, priority 2013, dated 2018).
Read-outs that look alike come from different tables or passages of the source.

Assays:
RORγt [1] = biological target: T1, RORγt (Homo sapiens, UniProt P51449); experiment: RORγt binding test using fluorescent-labeled cholesterol (TR-FRET); conditions: read-out: Binding inhibitory rate of fluorescent-labeled cholesterol to RORγt at test compound 1 μM (%)
T1 sequence (P51449 1-497 isoform P51449-2): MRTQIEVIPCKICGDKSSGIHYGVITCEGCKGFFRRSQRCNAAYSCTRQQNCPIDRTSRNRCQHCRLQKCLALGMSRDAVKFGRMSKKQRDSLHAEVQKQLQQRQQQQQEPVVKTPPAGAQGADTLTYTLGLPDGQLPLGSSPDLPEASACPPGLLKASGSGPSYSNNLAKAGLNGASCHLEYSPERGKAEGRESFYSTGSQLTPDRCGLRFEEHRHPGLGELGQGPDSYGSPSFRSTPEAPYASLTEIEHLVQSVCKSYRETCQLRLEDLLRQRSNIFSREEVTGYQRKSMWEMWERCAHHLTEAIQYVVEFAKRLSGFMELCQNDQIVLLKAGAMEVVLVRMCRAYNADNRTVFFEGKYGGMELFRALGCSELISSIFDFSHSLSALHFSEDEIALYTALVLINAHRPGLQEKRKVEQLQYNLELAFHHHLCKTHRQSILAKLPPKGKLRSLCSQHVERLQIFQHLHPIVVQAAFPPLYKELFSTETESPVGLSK
In short: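 TR-FRET displacement with His-tagged RORγt, BODIPY-cholesterol and Tb-anti-His antibody in Tris-HCl pH 7.5, 100 mM NaCl, 1 mM DTT, 0.1% BSA. Compound, RORγt and labelled cholesterol were incubated 20 min at RT, then antibody was added for another 20 min.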

RORγt [2] = biological target: T1, RORγt; experiment: RORγt binding test using fluorescent-labeled synthetic ligand (TR-FRET); conditions: read-out: Binding inhibitory rate of fluorescent-labeled synthetic ligand to RORγt at test compound 1 μM (%)
Description: RORγt Binding Test Using Fluorescent-labeled Synthetic Ligand
The binding activity of the test compound to RORγt was measured by a time resolved fluorescence resonance energy transfer method (TR-FRET) utilizing histidine-tagged RORγt, fluorescent-labeled synthetic ligand, and terbium-labeled anti-histidine tag antibody (Invitrogen). First, a test compound diluted with an assay buffer (20 mM Tris-HCl (pH 7.5), 100 mM NaCl, 1 mM DTT, 0.1% BSA) was added to a 384 well plate by 3 μL. Then, RORγt diluted with an assay buffer to 240 nM was added by 3 μL, after which fluorescent-labeled synthetic ligand diluted with the assay buffer to 12 μM was added by 3 μL, and the mixture was stood at room temperature for 20 min. Thereafter, a terbium-labeled anti-histidine tag antibody diluted with the assay buffer to 8 nM was added by 3 μL. The mixture was stood at room temperature for 20 min, and fluorescence intensity (excitation wavelength 320 nm, fluorescence wavelength 520 nm, delay time 100 microseconds) was measured by Envision (PerkinElmer).

RORγt [3] = biological target: T1, RORγt; experiment: Cofactor recruitment test (Alpha Screen, biotinylated SRC-1 peptide); format: biochemical; conditions: read-out: Signal value inhibitory rate at test compound 1 μM (%)
Description: Cofactor Recruitment Test
Cofactor recruitment test was performed by Alpha Screen (Histidine Detection Kit, PerkinElmer) method. First, a test compound was diluted with an assay buffer (50 mM Tris-HCl (pH 7.5), 50 mM KCl, 1 mM DTT, 0.1% BSA) and added to a 384 well plate by 5 μL. […] The mixture was stood in a dark place for 1 hr, and the signal value was measured by Envision (PerkinElmer).

RORγt [4] = biological target: T1, RORγt; experiment: Jurkat reporter test (human IL-17 ROR response element luciferase, RORγt vector); format: cell-based; conditions: read-out: Luminescence level inhibitory rate at test compound 3 μM (%)
In short: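 Jurkat cells were electroporated (1350 V, 10 ms, 3 pulses) with reporter constructs, then cultured overnight with compound in RPMI containing 10% lipid-reduced FCS, 10 mM HEPES pH 7.5 and 5 μM lovastatin. Luciferase was quantified by Bright-Glo luminescence after 10 min at room temperature.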

[5] = test compound 3 μM, Jurkat cells

CCOCC(C)(C)c1c(F)cc(NC(=O)[C@H]2c3ccc(OC)cc3CCN2C(=O)CCCC(=O)O)cc1F [Example 172, 5-((1R)-1-((4-(1-ethoxy-2-methylpropan-2-yl)-3,5-difluorophenyl)carbamoyl)-6-methoxy-3,4-dihydroisoquinolin-2(1H)-yl)-5-oxopentanoic acid]
inhibition at 1 µM (RORγt [1]): 101%
inhibition at 1 µM (RORγt [2]): 101%
inhibition at 1 µM (RORγt [3]): 82%
inhibition at 3 µM (RORγt [4]; [5]): 97%

CCOc1ccc2c(c1)CCN(C(=O)Cc1cc(O)no1)[C@H]2C(=O)Nc1cc(F)c2c(c1)CCC2(C)C [Example 66, (1R)-6-ethoxy-N-(7-fluoro-1,1-dimethyl-2,3-dihydro-1H-inden-5-yl)-2-((3-hydroxy-1,2-oxazol-5-yl)acetyl)-1,2,3,4-tetrahydroisoquinoline-1-carboxamide]
inhibition at 1 µM (RORγt [1]): 102%
inhibition at 1 µM (RORγt [2]): 102%
inhibition at 1 µM (RORγt [3]): 82%
inhibition at 3 µM (RORγt [4]; [5]): 99.5%

CCOc1ccc2c(n1)CCN(C(=O)Cc1cc(O)no1)[C@H]2C(=O)Nc1ccc([Si](C)(C)C)c(F)c1 [Example 151, (5R)-2-ethoxy-N-(3-fluoro-4-(trimethylsilyl)phenyl)-6-((3-hydroxy-1,2-oxazol-5-yl)acetyl)-5,6,7,8-tetrahydro-1,6-naphthyridine-5-carboxamide]
inhibition at 1 µM (RORγt [1]): 99%
inhibition at 1 µM (RORγt [2]): 102%
inhibition at 1 µM (RORγt [3]): 99%
inhibition at 3 µM (RORγt [4]; Jurkat): 102%

C[Si](C)(C)c1c(F)cc(NC(=O)[C@H]2c3ccc(OC(F)F)cc3CCN2C(=O)CCC(=O)O)cc1F [Example 195, 4-((1R)-6-(difluoromethoxy)-1-((3,5-difluoro-4-(trimethylsilyl)phenyl)carbamoyl)-3,4-dihydroisoquinolin-2 (1H)-yl)-4-oxobutanoic acid]
inhibition at 1 µM (RORγt [2]): 101%
inhibition at 1 µM (RORγt [3]): 89%
inhibition at 3 µM (RORγt [4]; Jurkat): 101%

CCOc1ccc2c(c1)CCN(C(=O)CCCC(=O)O)[C@H]2C(=O)Nc1cc(F)c([Si](C)(C)C)cc1F [Example 184, 5-((1R)-1-((2,5-difluoro-4-(trimethylsilyl)phenyl)carbamoyl)-6-ethoxy-3,4-dihydroisoquinolin-2(1H)-yl)-5-oxopentanoic acid]
inhibition at 1 µM (RORγt [2]): 101%
inhibition at 1 µM (RORγt [3]): 93%
inhibition at 3 µM (RORγt [4]; Jurkat): 100%

C[Si](C)(C)c1ccc(NC(=O)[C@H]2c3ccc(OC(F)F)cc3CCN2C(=O)CCCC(=O)O)cc1F [Example 194, 5-((1R)-6-(difluoromethoxy)-1-((3-fluoro-4-(trimethylsilyl)phenyl)carbamoyl)-3,4-dihydroisoquinolin-2(1H)-yl)-5-oxopentanoic acid]
inhibition at 1 µM (RORγt [2]): 101%
inhibition at 1 µM (RORγt [3]): 87%
inhibition at 3 µM (RORγt [4]; Jurkat): 100%

CCOc1ccc2c(c1)CCN(C(=O)CCCCC(=O)O)[C@H]2C(=O)Nc1ccc([Si](C)(C)C)c(F)c1 [Example 211, 6-((1R)-6-ethoxy-1-((3-fluoro-4-(trimethylsilyl)phenyl)carbamoyl)-3,4-dihydroisoquinolin-2 (1H)-yl)-6-oxohexanoic acid]
inhibition at 1 µM (RORγt [2]): 101%
inhibition at 1 µM (RORγt [3]): 92%
inhibition at 3 µM (RORγt [4]; Jurkat): 101%

CCOc1ccc2c(c1)CCN(C(=O)CC(C)(O)CC(=O)O)[C@H]2C(=O)Nc1cc(F)c([Si](C)(C)C)c(F)c1 (stereo partly drawn) [Example 240, 5-((1R)-1-((3,5-difluoro-4-(trimethylsilyl)phenyl)carbamoyl)-6-ethoxy-3,4-dihydroisoquinolin-2(1H)-yl)-3-hydroxy-3-methyl-5-oxopentanoic acid]
inhibition at 1 µM (RORγt [2]): 101%
inhibition at 1 µM (RORγt [3]): 91%
inhibition at 3 µM (RORγt [4]; Jurkat): 101%

CCOc1ccc2c(c1)CCN(C(=O)CCCCC(=O)O)[C@H]2C(=O)Nc1cc(F)c2c(c1)CCC2(C)C [Example 210, 6-((1R)-6-ethoxy-1-((7-fluoro-1,1-dimethyl-2,3-dihydro-1H-inden-5-yl)carbamoyl)-3,4-dihydroisoquinolin-2(1H)-yl)-6-oxohexanoic acid]
inhibition at 1 µM (RORγt [2]): 101%
inhibition at 1 µM (RORγt [3]): 76%
inhibition at 3 µM (RORγt [4]; [5]): 98%

COc1ccc2c(c1)CCN(C(=O)NCCCC(=O)O)[C@H]2C(=O)Nc1cc(F)c([Si](C)(C)C)c(F)c1 [Example 242, 4-((((1R)-1-((3,5-difluoro-4-(trimethylsilyl)phenyl)carbamoyl)-6-methoxy-3,4-dihydroisoquinolin-2(1H)-yl)carbonyl)amino)butanoic acid]
inhibition at 1 µM (RORγt [2]): 101%
inhibition at 1 µM (RORγt [3]): 94%
inhibition at 3 µM (RORγt [4]; Jurkat): 101%

CCOc1ccc2c(c1)CCN(C(=O)CCCC(=O)O)[C@H]2C(=O)Nc1ccc([Si](C)(C)C)c(F)c1 [Example 183, 5-((1R)-6-ethoxy-1-((3-fluoro-4-(trimethylsilyl)phenyl)carbamoyl)-3,4-dihydroisoquinolin-2 (1H)-yl)-5-oxopentanoic acid]
inhibition at 1 µM (RORγt [2]): 101%
inhibition at 1 µM (RORγt [3]): 91%
inhibition at 3 µM (RORγt [4]; Jurkat): 102%

C[Si](C)(C)c1c(F)cc(NC(=O)[C@H]2c3ccc4c(c3CCN2C(=O)CCCC(=O)O)OCO4)cc1F [Example 254, 5-((6R)-6-((3,5-difluoro-4-(trimethylsilyl)phenyl)carbamoyl)-8,9-dihydro[1,3]dioxolo[4,5-f]isoquinolin-7(6H)-yl)-5-oxopentanoic acid]
inhibition at 1 µM (RORγt [2]): 102%
inhibition at 1 µM (RORγt [3]): 101%
inhibition at 3 µM (RORγt [4]; Jurkat): 102%

CCOc1ccc2c(c1)CCN(C(=O)[C@H](O)CCC(=O)O)[C@H]2C(=O)Nc1cc(F)c([Si](C)(C)C)c(F)c1 [Example 209, (4R)-5-((1R)-1-((3,5-difluoro-4-(trimethylsilyl)phenyl)carbamoyl)-6-ethoxy-3,4-dihydroisoquinolin-2(1H)-yl)-4-hydroxy-5-oxopentanoic acid]
inhibition at 1 µM (RORγt [2]): 102%
inhibition at 1 µM (RORγt [3]): 87%
inhibition at 3 µM (RORγt [4]; Jurkat): 99%

C[Si](C)(C)c1c(F)cc(NC(=O)[C@H]2c3ccc(S(C)(=O)=O)cc3CCN2C(=O)CCCC(=O)O)cc1F [Example 235, 5-((1R)-1-((3,5-difluoro-4-(trimethylsilyl)phenyl)carbamoyl)-6-(methylsulfonyl)-3,4-dihydroisoquinolin-2(1H)-yl)-5-oxopentanoic acid]
inhibition at 1 µM (RORγt [2]): 102%
inhibition at 1 µM (RORγt [3]): 45%
inhibition at 3 µM (RORγt [4]; Jurkat): 93%

CCOc1ccc2c(c1)CCN(C(=O)CCC(=O)O)[C@H]2C(=O)Nc1cc(F)c([Si](C)(C)C)c(F)c1 [Example 180, 4-((1R)-1-((3,5-difluoro-4-(trimethylsilyl)phenyl)carbamoyl)-6-ethoxy-3,4-dihydroisoquinolin-2(1H)-yl)-4-oxobutanoic acid]
inhibition at 1 µM (RORγt [2]): 101%
inhibition at 1 µM (RORγt [3]): 93%
inhibition at 3 µM (RORγt [4]; Jurkat): 100%

CC1(C)CCc2cc(NC(=O)[C@H]3c4ccc5c(c4CCN3C(=O)CCCC(=O)O)OCO5)cc(F)c21 [Example 256, 5-((6R)-6-((7-fluoro-1,1-dimethyl-2,3-dihydro-1H-inden-5-yl)carbamoyl)-8,9-dihydro[1, 3]dioxolo[4,5-f]isoquinolin-7 (6H)-yl)-5-oxopentanoic acid]
inhibition at 1 µM (RORγt [2]): 100%
inhibition at 1 µM (RORγt [3]): 102%
inhibition at 3 µM (RORγt [4]; [5]): 83%

CCOc1ccc2c(c1)CCN(C(=O)N1CC(CC(=O)O)C1)[C@H]2C(=O)Nc1cc(F)c([Si](C)(C)C)c(F)c1 [Example 231, (1-(((1R)-1-((3,5-difluoro-4-(trimethylsilyl)phenyl)carbamoyl)-6-ethoxy-3,4-dihydroisoquinolin-2(1H)-yl)carbonyl)azetidin-3-yl)acetic acid]
inhibition at 1 µM (RORγt [2]): 101%
inhibition at 1 µM (RORγt [3]): 96%
inhibition at 3 µM (RORγt [4]; Jurkat): 101%
